The text below walks through data of patent publication US8916599B2, “1H-benz imidazole-5-carboxamides as anti-inflammatory agents” (Orexo AB, priority 2008, dated 2014).

For one experiment, the target named is T1, recombinant human mPGES-1 (Homo sapiens, UniProt O14684).
T1 construct: made in house; host or cells: Rosetta E. coli (microsomal/membrane fraction)
T1 sequence (O14684 1-152): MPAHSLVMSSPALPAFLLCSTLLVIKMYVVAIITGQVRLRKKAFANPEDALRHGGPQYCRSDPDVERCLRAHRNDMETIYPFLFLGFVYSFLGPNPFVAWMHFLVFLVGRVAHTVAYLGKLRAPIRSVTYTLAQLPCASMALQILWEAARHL
Put plainly: mPGES-1 inhibition test (microsomes, PGH2 substrate, HTRF detection of PGE2). It counts as biochemical. The note with it: inhibition of mPGES-1 at 1 μM (marked in cell). As for the experimental part:
Microsomes from Rosetta E. coli bacteria expressing recombinant human mPGES-1 is dissolved in 0.1 M KPi pH 7.4 buffer containing 2.5 mM GSH. 50 μl of the enzyme is subsequently dispensed in a 384-well plate. 0.5 μl of the inhibitor dissolved in DMSO at is thereafter added to each well and incubated for 25 minutes at room temperature. Subsequently, 2 μl of PGH2 dissolved in an appropriate solvent is added to each well and after one minute the acidified stop solution containing FeCl2 is added. 4 μl of the total volume is transferred to a separate plate and diluted 750-fold in two separate steps before HTRF detection of PGE2.
The HTRf detection is performed by the use of a commercially available kit from CisBio essentially according to the manufacturer's protocol. Briefly, 10 μl of the diluted sample is transferred to a white 384-well plate. 5 μl of d2 and 5 μl Eu3+-Cryptate labeled anti-PGE2 is added to each well containing samples by the use of a Multidrop. The plate is covered with a plastic self-adhesive film, centrifuged at 1200 rpm for 1 minute and subsequently stored at +4° C. over night.
After over night incubation the fluorescence is measured by the use of an appropriate microplate reader. The fluorescence of europium cryptate, and d2 are measured using the following excitation and emission wavelength, europium cryptate: λmax^ex=307 nm, λmax^em=620 nm and d2: λmax^ex=620 nm, λmax^em=665 nm), respectively. The extent of the specific FRET is measured as a ratio of the emission intensity at 665 nm vs. that at 620 nm. A standard curve using synthetic PGE2 is used to quantify the amount of PGE2 in unknown samples.
Background: In TR-FRET formats the signal depends on donor and acceptor labels being close together.
Consider `COc1cc2[nH]c(Nc3c(Cl)ccc(C)c3F)nc2cc1C(=O)NC1CCC(C)(C)CC1` [Example 626], for which the inhibition at 1 µM was 92%.

Still in this experiment, the particulars now being: inhibition of mPGES-1 at 10 μM.
On to `CC(C)(C)[C@H]1CC[C@@H](NC(=O)c2cc3nc(Nc4c(Cl)cccc4Cl)[nH]c3cc2F)CC1` [Example 374, N-((1s,4s)-4-tert.-Butylcyclohexyl)-2-(2,6-dichlorophenylamino)-6-fluoro-1H-benzimidazole-5-carboxamide], for which the inhibition at 10 µM was 100%. Same read-out and setting: next, `Cn1c(Nc2c(Cl)cccc2Cl)nc2cc(C(=O)Nc3cc(C(F)(F)F)ccn3)ccc21` [Example 203, 2-(2,6-Dichloro-phenylamino)-1-methyl-1H-benzimidazole-5-carboxylic acid (4-trifluoromethyl-pyridin-2-yl)-amide]: 100%. Turning to `CCCCCCNC(=O)c1cc2nc(Nc3c(F)cccc3Cl)n(C)c2cc1F` [Example 458, 2-(2-Chloro-6-fluorophenylamino)-6-fluoro-N-hexyl-1-methyl-1H-benzimidazole-5-carboxamide], the inhibition at 10 µM was found to be 99%.

For `C#Cc1ccccc1Nc1nc2cc(C(=O)Nc3ccc(Br)cc3)ccc2n1C` [Example 538, N-(4-Bromophenyl)-2-(2-ethynylphenylamino)-1-methyl-1H-benzimidazole-5-carboxamide], the inhibition at 10 µM is 85%.

As to `O=C(Nc1ccc(Br)cc1)c1ccc2[nH]c(Nc3cccc(Cl)c3Cl)nc2c1` [Example 108, 2-(2,3-Dichloro-phenylamino)-1H-benzimidazole-5-carboxylic acid (4-bromo-phenyl)-amide], the inhibition at 10 µM is 100%. The same measure, in the same setting: the figure for `O=C(Nc1ccc(Br)cc1)c1cc2nc(Nc3c(F)ccc(Cl)c3Cl)[nH]c2cc1OCC(F)(F)F` [Example 588, N-(4-Bromo-phenyl)-2-(2,3-dichloro-6-fluoro-phenylamino)-6-(2,2,2-trifluoroethoxy)-1H-benzimidazole-5-carboxamide] is 100%. As for `O=C(Nc1cc(Cl)ccn1)c1ccc2c(c1)nc(Nc1c(Cl)cccc1Cl)n2CCO` [Example 271, 2-(2,6-Dichloro-phenylamino)-1-(2-hydroxy-ethyl)-1H-benzimidazole-5-carboxylic acid (4-chloro-pyridin-2-yl)-amide], the inhibition at 10 µM is 98%. The same measure, in the same setting: the figure for `Cc1cc(NC(=O)c2ccc3[nH]c(Nc4c(Cl)cccc4Cl)nc3c2)ncc1Br` [Example 182, 2-(2,6-Dichloro-phenylamino)-1H-benzimidazole-5-carboxylic acid (5-bromo-4-methyl-pyridin-2-yl)-amide] is 99%. The same measure, in the same setting: next, `O=C(Nc1ccccc1)c1ccc2[nH]c(Nc3cc(Cl)ccc3Cl)nc2c1` [Example 7, 2-(2,5-Dichloro-phenylamino)-1H-benzimidazole-5-carboxylic acid-phenylamide]: 100%.

For the compound `COc1cc2[nH]c(Nc3c(Cl)cccc3Cl)nc2cc1C(=O)NCc1ncccc1C1CC1` [Example 407, N-((3-Cyclopropylpyridin-2-yl)-methyl)-2-(2,6-dichlorophenylamino)-6-methoxy-1H-benzimidazole-5-carboxamide], the inhibition at 10 µM is 100%. Turning to `Cc1cc(NC(=O)c2ccc3nc(Nc4c(Cl)cccc4Cl)[nH]c3c2)cc(Cl)n1` [Example 198, 2-(2,6-Dichloro-phenylamino)-3H-benzimidazole-5-carboxylic acid (2-chloro-6-methyl-pyridin-4-yl)-amide], the inhibition at 10 µM came to 100%. Turning to `Cc1cccc(C)c1Nc1nc2cc(C(=O)Nc3ccc(Br)cc3)ccc2n1C` [compound 318], the inhibition at 10 µM stood at 100%.

For the compound `O=C(N[C@H]1CC[C@H](C(F)(F)F)CC1)c1cc2nc(Nc3c(Cl)cccc3Cl)[nH]c2cc1F` [Example 155, 2-(2,6-Dichloro-phenylamino)-6-fluoro-1H-benzimidazole-5-carboxylic acid (trans-4-trifluoromethyl-cyclohexyl)-amide], the inhibition at 10 µM turned out to be 100%. The same measure, in the same setting: next, `Cn1c(Nc2c(F)cccc2Cl)nc2cc(C(=O)NCCC3CC3)c(F)cc21` [Example 502, 2-(2-Chloro-6-fluorophenylamino)-N-(2-cyclopropylethyl)-6-fluoro-1-methyl-1H-benzimidazole-5-carboxamide]: 96%; `O=C(Nc1ccc(Br)cc1)c1cc2nc(Nc3c(Cl)cc(F)cc3Cl)[nH]c2cc1OCCF` [Example 585, 2-(2,6-Dichloro-4-fluoro-phenylamino)-N-(4-bromo-phenyl)-6-(2-fluoroethoxy)-1H-benzimidazole-5-carboxamide]: 100%; `O=C(NC1CCCCC1)c1ccc2nc(Nc3c(Cl)cccc3Cl)[nH]c2c1` [Example 137, 2-(2,6-Dichloro-phenylamino)-3H-benzimidazole-5-carboxylic acid cyclohexylamide]: 100%. For `O=C(NCCc1ccncc1)c1ccc2[nH]c(Nc3c(Cl)cccc3Cl)nc2c1` [Example 233, 2-(2,6-Dichloro-phenylamino)-1H-benzimidazole-5-carboxylic acid (2-pyridin-4-yl-ethyl)-amide], the inhibition at 10 µM is 67%. For `Cc1cc2[nH]c(Nc3c(Cl)cccc3Cl)nc2cc1C(=O)Nc1ccc(C(C)(C)C)cc1` [Example 122, 2-(2,6-Dichloro-phenylamino)-6-methyl-1H-benzimidazol-5-carboxylic acid (4-tert.-butyl-phenyl)-amide], the inhibition at 10 µM came to 99%. Same read-out and setting: next, `CS(=O)(=O)c1cccc(NC(=O)c2ccc3[nH]c(Nc4c(Cl)cccc4Cl)nc3c2)c1` [Example 224, 2-(2,6-Dichloro-phenylamino)-1H-benzimidazole-5-carboxylic acid (3-methanesulfonyl-phenyl)-amide]: 100%; `Cn1c(Nc2ccc(Cl)cc2Cl)nc2cc(C(=O)Nc3ccc(Br)cc3)ccc21` [Example 519, N-(4-Bromophenyl)-2-(2,4-dichlorophenylamino)-1-methyl-1H-benzimidazole-5-carboxamide]: 95%. Same read-out and setting: next, `Cn1c(Nc2c(F)cccc2Cl)nc2cc(C(=O)NC3CCC(C(C)(C)C)CC3)c(F)cc21` (centres unmarked) [Example 354, N-(4-tert.-Butylcyclohexyl)-2-(2-chloro-6-fluorophenylamino)-6-fluoro-1-methyl-1H-benzimidazole-5-carboxamide]: 100%; `O=C(Nc1ccc(Br)cc1)c1ccc2[nH]c(Nc3ccc(Cl)cc3Cl)nc2c1` [Example 109, 2-(2,4-Dichloro-phenylamino)-1H-benzimidazole-5-carboxylic acid (4-bromo-phenyl)-amide]: 100%; `CC1CCC(NC(=O)c2ccc3[nH]c(Nc4c(Cl)cccc4Cl)nc3c2)CC1` (centres unmarked) [Example 215, 2-(2,6-Dichloro-phenylamino)-1H-benzimidazole-5-carboxylic acid (4-methyl-cyclohexyl)-amide]: 96%. On to `COCCOc1cccc(NC(=O)c2ccc3[nH]c(Nc4c(Cl)cccc4Cl)nc3c2)n1` [Example 571, 2-(2,6-Dichlorophenylamino)-N-(6-(2-methoxyethoxy)pyridin-2-yl)-1H-benzimidazole-5-carboxamide], for which the inhibition at 10 µM was 86%.

Consider `Cc1cc2nc(NC(=O)c3ccc4[nH]c(Nc5c(Cl)cccc5Cl)nc4c3)[nH]c2cc1C` [Example 314, 2-(2,6-Dichloro-phenylamino)-1H-benzimidazole-5-carboxylic acid (5,6-dimethyl-1H-benzimidazol-2-yl)-amide], for which the inhibition at 10 µM came to 97%.

Broadly, the inhibition is the drop in the measured response relative to a control, in per cent.
